Where two headings read alike, the source gives them in different places.
Assays:
Drosophila OR85b = target: T1, Drosophila OR85b (Drosophila melanogaster, UniProt Q9VHQ7); test: Calcium ion fluorescence (GCaMP6) assay, OR85b stable HEK293 cell line; format: cell-based; settings: for Average response / OR85b response (VUAA1-normalized) at 1 μM / OR85b response (VUAA1-normalized) at 10 μM / OR85b response (VUAA1-normalized) at 100 μM: OR85b cell line; for Average response: VUAA1-normalized response, mean of biological replicates
T1 construct: expressed in transfected cells
T1 sequence (Q9VHQ7 1-390): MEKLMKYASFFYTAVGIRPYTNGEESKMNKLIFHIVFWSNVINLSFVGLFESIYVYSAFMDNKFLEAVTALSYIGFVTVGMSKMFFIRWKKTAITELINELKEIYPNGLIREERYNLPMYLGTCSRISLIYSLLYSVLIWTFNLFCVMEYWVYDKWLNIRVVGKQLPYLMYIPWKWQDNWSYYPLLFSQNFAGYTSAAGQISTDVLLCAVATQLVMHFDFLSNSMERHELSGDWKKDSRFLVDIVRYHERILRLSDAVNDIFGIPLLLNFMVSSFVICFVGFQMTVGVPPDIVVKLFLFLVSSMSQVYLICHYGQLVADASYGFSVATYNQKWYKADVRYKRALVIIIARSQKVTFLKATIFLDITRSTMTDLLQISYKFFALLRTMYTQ
T1 sequence (Q9VNB5 1-486 partner): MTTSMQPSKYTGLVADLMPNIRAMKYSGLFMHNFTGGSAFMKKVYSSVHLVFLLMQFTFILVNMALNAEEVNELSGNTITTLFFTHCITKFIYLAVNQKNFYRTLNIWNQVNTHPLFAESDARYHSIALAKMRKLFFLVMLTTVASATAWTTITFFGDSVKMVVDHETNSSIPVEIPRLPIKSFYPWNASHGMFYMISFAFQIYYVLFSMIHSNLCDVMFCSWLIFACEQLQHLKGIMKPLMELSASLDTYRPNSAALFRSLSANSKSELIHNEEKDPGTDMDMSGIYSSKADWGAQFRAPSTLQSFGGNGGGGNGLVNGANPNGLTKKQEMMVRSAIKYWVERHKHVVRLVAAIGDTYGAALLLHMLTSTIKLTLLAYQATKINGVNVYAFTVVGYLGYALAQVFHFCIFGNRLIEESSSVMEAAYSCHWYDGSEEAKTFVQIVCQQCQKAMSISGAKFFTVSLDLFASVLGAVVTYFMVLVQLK
How it was run: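 Responses are VUAA1-normalized ΔF: each VOC-evoked calcium signal, (FMAX−F0)/F0 over 30 s after injection, divided by the same line's mean 50 µM VUAA1 response. Cells were doxycycline-induced HEK293 with GCaMP6 and the cognate Drosophila OR, in HEPES buffer pH 7.3; ligands tested 0.01–100 μM.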

OR10a = test system: OR10a; set-up: method as in earlier work; settings: DoOR database value, ref DoOR, cited from earlier work
OR13a = test system: OR13a; set-up: method as in earlier work; settings: DoOR database value, ref DoOR, cited from earlier work
OR71a = test system: OR71a; set-up: method as in earlier work; settings: DoOR database value, ref DoOR, cited from earlier work
OR47a = test system: OR47a; set-up: method as in earlier work; settings: DoOR database value, ref DoOR, cited from earlier work
OR49b = test system: OR49b; set-up: method as in earlier work; settings: DoOR database value, ref DoOR, cited from earlier work
OR85b = test system: OR85b; set-up: method as in earlier work; settings: DoOR database value, ref DoOR, cited from earlier work
OR98a = test system: OR98a; set-up: method as in earlier work; settings: DoOR database value, ref DoOR, cited from earlier work
[1] = ligand concentration 1 (unit not given), threshold 0.05, below shown as 0
[2] = ligand concentration 10 (unit not given), threshold 0.05, below shown as 0
[3] = ligand concentration 100 (unit not given), threshold 0.05, below shown as 0
[4] = HEK293, read-out: OR85b Average response (VUAA1-normalized)
[5] = HEK293, read-out: OR85b response (VUAA1-normalized response)

Row | SMILES | Average response (Drosophila OR85b; cc. 1 µM) | Average response (Drosophila OR85b; cc. 10 µM) | Average response (Drosophila OR85b; cc. 100 µM) | DF norm AVERAGE OR85b (Drosophila OR85b; [1]) | DF norm AVERAGE OR85b (Drosophila OR85b; [2]) | DF norm AVERAGE OR85b (Drosophila OR85b; [3]) | OR85b response (VUAA1-normalized) at 1 μM (Drosophila OR85b; VOC concentration 1 μM) | OR85b response (VUAA1-normalized) at 10 μM (Drosophila OR85b; VOC concentration 10 μM) | OR85b response (VUAA1-normalized) at 100 μM (Drosophila OR85b; VOC concentration 100 μM) | OR10a DoOR response (OR10a; OR10a) | OR13a DoOR response (OR13a; OR13a) | OR47a DoOR response (OR47a; OR47a) | OR49b DoOR response (OR49b; OR49b) | OR85b DoOR response (OR85b; OR85b) | OR98a DoOR response (OR98a; OR98a) | OR71a DoOR response (OR71a; OR71a) | further results
1 | CC(C)=CCC/C(C)=C/CC/C(C)=C/CO [e,e-farnesol] | 0.053 | 0.08 | 0.00 | 0.05296 | 0.07925 | 0 |  |  |  |  |  |  |  |  |  |  | OR85b response (VUAA1-normalized response) (Drosophila OR85b; VOC concentration 1 μM): 0.053; OR85b response (VUAA1-normalized response) (Drosophila OR85b; VOC concentration 10 μM): 0.08; OR85b response (VUAA1-normalized response) (Drosophila OR85b; VOC concentration 100 μM): 0.00; OR10a DoOR response (OR10a): 0.014; OR13a DoOR response (OR13a): 0.075; OR71a DoOR response (OR71a): 0.11
2 | CC/C=C\CCO [Z-3-hexenol] |  |  |  |  |  |  | 0.0533 | 0.00 | 0.00 | 0.007 | 0.37 | 0.14 | 0.07 | 0.60 | 0.44 |  | 
3 | COC(=O)c1ccccc1O [methyl salicylate] | 0.00 | 0.0263 | 0.13 | 0 | 0 | 0.1286 | 0.00 | 0.00 | 0.13 | 0.75 | 0.07 | -0.032 | 0.05 | 0.009 | 0.034 | 0.47 | activation at 1 µM (Drosophila OR85b; [4]): 0%; activation at 10 µM (Drosophila OR85b; [4]): 3%; activation at 100 µM (Drosophila OR85b; [4]): 13%
4 | CCCCOC(C)=O [butyl acetate] | 0.00 | 0.00 | 0.00 | 0 | 0 | 0 |  |  |  |  |  |  |  |  |  |  | activation at 1 µM (Drosophila OR85b; [5]): 0%; activation at 10 µM (Drosophila OR85b; [5]): 0%; activation at 100 µM (Drosophila OR85b; [5]): 0%; OR10a DoOR response (OR10a): 0.27; OR13a DoOR response (OR13a): 0.31; OR47a DoOR response (OR47a): 0.77; OR49b DoOR response (OR49b): 0.035; OR85b DoOR response (OR85b): 0.78; OR98a DoOR response (OR98a): 0.70
5 | CCCCCOC(C)=O [pentyl acetate] | 0.0185 | 0.04 | 0.14 | 0 | 0 | 0.1368 | 0.00 | 0.00 | 0.14 | 0.03 | 0.39 | 0.82 | 0.022 | 0.56 | 0.64 |  | activation at 1 µM (Drosophila OR85b; [4]): 2%; activation at 10 µM (Drosophila OR85b; [4]): 4%; activation at 100 µM (Drosophila OR85b; [4]): 14%
6 | Cc1ccc(C(C)C)cc1 [p-cymene] | 0.00 | 0.12 | 0.09 | 0 | 0.1172 | 0.09049 | 0.00 | 0.12 | 0.09 | -0.003 |  | 0.018 | 0.014 | -0.004 | -0.012 | 0.063 | 
7 | COC(=O)c1ccccc1 [methyl benzoate] | 0.00 | 0.00 | 0.00 | 0 | 0 | 0 | 0.00 | 0.00 | 0.00 | 0.63 |  | 0.09 | 0.035 | 0.036 | 0.70 | 0.28 | 
8 | CCCCCC(=O)CC [3-octanone] | 0.00 | 0.00 | 0.09 |  |  |  |  |  |  |  |  |  |  |  |  |  | activation at 1 µM (Drosophila OR85b; [5]): 0%; activation at 10 µM (Drosophila OR85b; [5]): 0%; activation at 100 µM (Drosophila OR85b; [5]): 9%; DF norm AVERAGE OR85b (Drosophila OR85b; concentration 1, normalized fluorescence change, values below 0.05 threshold given as 0): 0; DF norm AVERAGE OR85b (Drosophila OR85b; concentration 10, normalized fluorescence change, values below 0.05 threshold given as 0): 0; DF norm AVERAGE OR85b (Drosophila OR85b; concentration 100, normalized fluorescence change, values below 0.05 threshold given as 0): 0.08805; OR71a DoOR response (OR71a): 0.016
9 | C=CC(C)(O)CCC=C(C)C (centres unmarked) [linalool] | 0.045 | 0.00 | 0.06 | 0 | 0 | 0.06299 | 0.00 | 0.00 | 0.06 | 0.001 | 0.16 | 0.04 | 0.016 | 0.16 | 0.47 |  | 
